Laboratory results published in patent publication US8598232B2, “Process for the preparation of non-genotoxic diacetylrhein (diacerein) and formulations comprising non-genotoxic diacetylrhein” (Evultis SA, priority 2008, dated 2013).
Structures can show the parent of a compound that is named as a salt.

Experiment: solubility in water of the potassium salt of Diacerein
Assay type: physicochemical
Details: in water at neutral pH (pH=7)
Protocol: Type A Process: The first step of the process (a.) is to salify the raw Diacerein to obtain a salt of Diacerein which is soluble in water. The water soluble salt of Diacerein is preferably an inorganic salt of Diacerein, more preferably a salt of Diacerein with an alkali metal. In a preferred embodiment, the salt of Diacerein is a potassium salt of Diacerein or a sodium salt of Diacerein. The solubility of potassium salt of Diacerein is around 1 g/50 ml of water at neutral pH (pH=7).

CC(=O)Oc1cccc2c1C(=O)c1c(OC(C)=O)cc(C(=O)O)cc1C2=O [potassium salt of Diacerein, 1,8-diacetoxy-3-carboxyanthraquinone]
solubility: around 1 g/50 ml
